Source: patent publication US7232690B1, “Method and device for detecting and isolating pharmacological compounds being contained in substance mixtures” (LTS Lohmann Therapie-Systeme AG, priority 1999, dated 2007)

Molecular target: β2-adrenoreceptor (Homo sapiens, UniProt P07550)
Test: Ultrafiltration target-binding test of extract of taraxacum with β2-adrenoreceptor membrane preparation (Example 3)
[1] = Sample 351, no receptor, extract 1.5 mg (7.5 g/l)
[2] = Sample 355, receptor 1.04 pmol (5.2 nmol/l), extract 1.5 pmol (7.5 nmol/l)
[3] = Sample 356, receptor 1.04 pmol (5.2 nmol/l), extract 1.5 pmol (7.5 nmol/l)
[4] = Sample 360, no receptor, extract 0.3 mg (1.5 g/l)
[5] = Sample 361, receptor 1.04 pmol (5.2 nmol/l), extract 0.3 mg (1.5 g/l)
[6] = Sample 362, no receptor, extract 0.6 mg (3 g/l)
[7] = Sample 363, receptor 1.04 pmol (5.2 nmol/l), extract 0.6 mg (3 g/l)
[8] = Sample 364, no receptor, extract 1.0 mg (5.0 g/l)
[9] = Sample 365, receptor 1.04 pmol (5.2 nmol/l), extract 1.0 mg (5.0 g/l)
[10] = Sample 366, receptor 1.04 pmol (5.2 nmol/l), extract 1.5 mg (7.5 g/l)
[11] = Sample 367, receptor 1.04 pmol (5.2 nmol/l), extract 1.5 mg (7.5 g/l)
[12] = Sample 369, receptor 1.04 pmol (5.2 nmol/l), extract 1.5 mg (7.5 g/l)
[13] = Sample 373, receptor 1.04 pmol (5.2 nmol/l), extract 1.5 mg (7.5 g/l)
[14] = Sample 374, receptor 0.52 pmol (2.6 nmol/l), extract 1.5 mg (7.5 g/l)
[15] = Sample 375, receptor 0.26 pmol (1.3 nmol/l), extract 1.5 mg (7.5 g/l)

β2-adrenoreceptor, sequence (P07550 whole entry): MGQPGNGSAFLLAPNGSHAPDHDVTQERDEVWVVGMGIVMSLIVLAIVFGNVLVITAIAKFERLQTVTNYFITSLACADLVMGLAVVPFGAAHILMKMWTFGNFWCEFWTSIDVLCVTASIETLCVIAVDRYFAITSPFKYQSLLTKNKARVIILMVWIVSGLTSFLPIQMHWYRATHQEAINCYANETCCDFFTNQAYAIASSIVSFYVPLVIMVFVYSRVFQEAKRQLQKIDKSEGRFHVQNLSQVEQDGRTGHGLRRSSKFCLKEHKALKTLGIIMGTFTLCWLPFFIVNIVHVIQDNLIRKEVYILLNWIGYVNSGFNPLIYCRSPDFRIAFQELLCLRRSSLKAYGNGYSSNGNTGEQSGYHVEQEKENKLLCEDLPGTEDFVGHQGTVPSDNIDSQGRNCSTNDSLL
Protocol: Substance used for the assays: • a) extr. taraxaci spir. sicc.
In the assays, the extract of taraxacum and the membrane preparation were combined in different stoichiometric ratios, dissolved in 200 μl of binding buffer (150 mM of NaCl, 50 mM of tris, pH 8.2 in water).
The receptor-ligand binding was completed by 30-minute-long incubation of the mixture at 30-34° C. The solutions were then placed on a Microcon 10 centrifugal filter and centrifuged at 9981×g for 15 min or until dryness of the filter. […] After two washing steps with binding buffer, the complexes present on the filter were separated by treatment with 200 μl of TFA (1/49.5/49.5).
The eluates from the following four filtration steps were centrifuged under vacuum until dryness, and the substances obtained were dissolved by means of ultrasound in 10 μl of the mobile phase of the HPLC (cf. Example 1), shortly before LC analysis.

O=C(/C=C/c1ccc(O)c(O)c1)O[C@@H](C(=O)O)[C@@H](OC(=O)/C=C/c1ccc(O)c(O)c1)C(=O)O [Substance L6, trans-chicorinic acid]
1st Wash [1]: 15045 nmol/L
2nd Wash [1]: 750.8 nmol/L
Filtrate [1]: 5970.7 nmol/L
Liberation [1]: 195.0 nmol/L
1st Wash [2]: 451.4 nmol/L
2nd Wash [2]: 100.4 nmol/L
Filtrate [2]: 1482.0 nmol/L
Liberation [2]: 707.0 nmol/L
1st Wash [3]: 600.1 nmol/L
2nd Wash [3]: 202.1 nmol/L
Filtrate [3]: 1848.6 nmol/L
Liberation [3]: 2199.1 nmol/L
1st Wash [4]: 468.9 nmol/L
2nd Wash [4]: 140.3 nmol/L
Filtrate [4]: 2935.2 nmol/L
Liberation [4]: 34.7 nmol/L
1st Wash [5]: 146.5 nmol/L
2nd Wash [5]: 124.3 nmol/L
Filtrate [5]: 1588.2 nmol/L
Liberation [5]: 138.1 nmol/L
1st Wash [6]: 958.0 nmol/L
2nd Wash [6]: 351.4 nmol/L
Filtrate [6]: 3446.6 nmol/L
Liberation [6]: 85.4 nmol/L
1st Wash [7]: 248.3 nmol/L
2nd Wash [7]: 142.0 nmol/L
Filtrate [7]: 1180.6 nmol/L
Liberation [7]: 257.0 nmol/L
1st Wash [8]: 1377.0 nmol/L
2nd Wash [8]: 627.8 nmol/L
Filtrate [8]: 3752.4 nmol/L
Liberation [8]: 151.3 nmol/L
1st Wash [9]: 626.7 nmol/L
2nd Wash [9]: 141.6 nmol/L
Filtrate [9]: 2291.6 nmol/L
Liberation [9]: 439.6 nmol/L
1st Wash [10]: 620.0 nmol/L
2nd Wash [10]: 181.5 nmol/L
Filtrate [10]: 5581.8 nmol/L
Liberation [10]: 504.8 nmol/L
1st Wash [11]: 832.5 nmol/L
2nd Wash [11]: 274.6 nmol/L
Filtrate [11]: 5159.0 nmol/L
Liberation [11]: 616.8 nmol/L
1st Wash [12]: 478.1 nmol/L
2nd Wash [12]: 341.9 nmol/L
Filtrate [12]: 7449.7 nmol/L
Liberation [12]: 674.0 nmol/L
1st Wash [13]: 182.7 nmol/L
2nd Wash [13]: 277.1 nmol/L
Filtrate [13]: 5562.6 nmol/L
Liberation [13]: 2096.1 nmol/L
1st Wash [14]: 1062.4 nmol/L
2nd Wash [14]: 476.6 nmol/L
Filtrate [14]: 8589.0 nmol/L
Liberation [14]: 1015.4 nmol/L
1st Wash [15]: 921.1 nmol/L
2nd Wash [15]: 433.9 nmol/L
Filtrate [15]: 10838.5 nmol/L
Liberation [15]: 279.9 nmol/L

O=C(/C=C/c1ccc(O)c(O)c1)OC(C(=O)O)C(O)C(=O)O (stereo not drawn) [Substance L3, trans-caftarinic acid]
1st Wash [1]: 51.0 nmol/L
2nd Wash [1]: 8.0 nmol/L
Filtrate [1]: 740.3 nmol/L
Liberation [1]: 11.9 nmol/L
1st Wash [2]: 88.8 nmol/L
2nd Wash [2]: 12.9 nmol/L
Filtrate [2]: 353.5 nmol/L
Liberation [2]: 15.8 nmol/L
1st Wash [3]: 79.0 nmol/L
2nd Wash [3]: 9.9 nmol/L
Filtrate [3]: 961.9 nmol/L
Liberation [3]: 26.3 nmol/L
1st Wash [4]: 22.7 nmol/L
2nd Wash [4]: 0 nmol/L
Filtrate [4]: 411.5 nmol/L
Liberation [4]: 8.1 nmol/L
1st Wash [5]: 16.5 nmol/L
2nd Wash [5]: 29.6 nmol/L
Filtrate [5]: 537.0 nmol/L
Liberation [5]: 11.2 nmol/L
1st Wash [6]: 20.5 nmol/L
2nd Wash [6]: 5.6 nmol/L
Filtrate [6]: 650.1 nmol/L
Liberation [6]: 3.2 nmol/L
1st Wash [7]: 54.4 nmol/L
2nd Wash [7]: 0 nmol/L
Filtrate [7]: 736.9 nmol/L
Liberation [7]: 8.7 nmol/L
1st Wash [8]: 36.9 nmol/L
2nd Wash [8]: 3.0 nmol/L
Filtrate [8]: 1034.4 nmol/L
Liberation [8]: 5.3 nmol/L
1st Wash [9]: 51.7 nmol/L
2nd Wash [9]: 8.6 nmol/L
Filtrate [9]: 1221.4 nmol/L
Liberation [9]: 9.8 nmol/L
1st Wash [10]: 102.8 nmol/L
2nd Wash [10]: 2.3 nmol/L
Filtrate [10]: 2088.5 nmol/L
Liberation [10]: 7.6 nmol/L
1st Wash [11]: 46.2 nmol/L
2nd Wash [11]: 15.6 nmol/L
Filtrate [11]: 2310.8 nmol/L
Liberation [11]: 6.3 nmol/L
1st Wash [12]: 90.8 nmol/L
2nd Wash [12]: 41.8 nmol/L
Filtrate [12]: 2381.4 nmol/L
Liberation [12]: 7.0 nmol/L
1st Wash [13]: 91.7 nmol/L
2nd Wash [13]: 26.6 nmol/L
Filtrate [13]: 2450.0 nmol/L
Liberation [13]: 36.2 nmol/L
1st Wash [14]: 44.0 nmol/L
2nd Wash [14]: 7.4 nmol/L
Filtrate [14]: 2593.2 nmol/L
Liberation [14]: 25.3 nmol/L
1st Wash [15]: 39.7 nmol/L
2nd Wash [15]: 19.6 nmol/L
Filtrate [15]: 2252.1 nmol/L
Liberation [15]: 19.0 nmol/L
